Test results published in PubChem BioAssay (NCI).
Where “and” joins values, the source holds several entries; their conditions need not be identical. Identical values can stand only once.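 Briefly, cells in 96-well plates were exposed to five compound concentrations for 48 h, and endpoints were estimated by linear interpolation. GI50 = concentration required for 50% inhibition of growth. At the TGI there is no net growth.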

Assays:
Assay in all cases: NCI anticancer screen, dose series, 48 h
A498 renal = tested on: A498 renal
HCT-15 colon = tested on: HCT-15 colon
IGROV1 ovarian = tested on: IGROV1 ovarian
KM12 colon = tested on: KM12 colon
MALME-3M melanoma = tested on: MALME-3M melanoma
NCI-H522 lung = tested on: NCI-H522 lung
RPMI-8226 leukemia = tested on: RPMI-8226 leukemia
RXF 393 renal = tested on: RXF 393 renal
SF-295 CNS = tested on: SF-295 CNS
SK-MEL-28 melanoma = tested on: SK-MEL-28 melanoma
SNB-75 CNS = tested on: SNB-75 CNS
SR leukemia = tested on: SR leukemia
U251 CNS = tested on: U251 CNS
UACC-257 melanoma = tested on: UACC-257 melanoma
BT-549 breast = tested on: BT-549 breast
MDA-N = tested on: MDA-N

| Structure (SMILES) | TGI (A498 renal) | TGI (HCT-15 colon) | TGI (IGROV1 ovarian) | TGI (KM12 colon) | TGI (MALME-3M melanoma) | TGI (NCI-H522 lung) | TGI (RPMI-8226 leukemia) | TGI (RXF 393 renal) | TGI (SF-295 CNS) | TGI (SK-MEL-28 melanoma) | TGI (SNB-75 CNS) | TGI (SR leukemia) | TGI (U251 CNS) | TGI (UACC-257 melanoma) | TGI (BT-549 breast) | TGI (MDA-N) | GI50 (UACC-257 melanoma) | GI50 (NCI-H522 lung) | GI50 (RPMI-8226 leukemia) | GI50 (SNB-75 CNS) |
| --- | --- | --- | --- | --- | --- | --- | --- | --- | --- | --- | --- | --- | --- | --- | --- | --- | --- | --- | --- | --- |
| O=c1c2ccccc2nc2ccc3c(Cl)[nH][nH]c3c12 | > 100 µM | > 100 µM | > 100 µM | > 100 µM | 77.3 µM | > 83.1 µM | > 100 µM | > 100 µM | > 100 µM | > 100 µM | > 100 µM | > 100 µM | > 100 µM | > 92.7 µM | – | – | – | – | – | – |
| CC1=CCC[C@H]2[C@](C)(CC3=CC(=O)C(SCC(C)C)=CC3=O)[C@@H](C)CC[C@]12C | 33.2 µM | 31.8 µM | 22.9 µM | 28 µM | – | – | 14.3 µM | 26.1 µM | 34.6 µM | 32.5 µM | 23.8 µM | 59 µM | 42.3 µM | 37.8 µM | 35.8 µM | – | – | – | – | – |
| COc1cc2nc(-c3cccs3)nc(Nc3cccc(Cl)c3)c2cc1OC | > 100 µM | > 100 µM | > 100 µM | > 100 µM | > 100 µM | > 100 µM | > 100 µM | – | 69.2 µM | > 100 µM | > 100 µM | > 100 µM | > 100 µM | > 100 µM | > 100 µM | – | – | – | – | – |
| COc1ccc(Oc2ccccc2N)cc1 | > 100 µM | > 100 µM | > 100 µM | > 100 µM | > 100 µM | – | > 100 µM | 98.2 µM | > 100 µM | 95.1 µM | > 100 µM | > 100 µM | 38.6 µM | > 100 µM | – | – | – | – | – | – |
| Cc1ccc(S(=O)(=O)NC(=O)C2=C3SCCN3C(=O)N(S(=O)(=O)c3ccc(C)cc3)C2c2ccccc2)cc1 (stereo unspecified) | > 100 µM | > 100 µM | > 100 µM | 71.6 µM | > 100 µM | 46.7 µM | 92.3 µM | 78.7 µM | > 100 µM | > 100 µM | > 100 µM | > 100 µM | > 100 µM | > 100 µM | > 100 µM | – | – | – | – | – |
| CSc1cnc2ccccc2c1Sc1c[nH]c2ccccc2c1=O | 47.4 µM | > 80.8 µM | 43.1 µM | 22.2 µM | 37.6 µM | 11 µM | 64.4 µM | 37.6 µM | > 46.7 µM | 43.5 µM | 10.3 µM | > 52 µM | 23.8 µM | 48 µM | – | – | – | – | – | – |
| CC(=O)OCC1OC(n2c(C)c(C)c(C)c(C#N)c2=S)C(OC(C)=O)C(OC(C)=O)C1OC(C)=O (stereo unspecified) | > 100 µM | > 100 µM | > 100 µM | > 100 µM | > 100 µM | 69.1 µM | – | 57.6 µM | 61.4 µM | > 100 µM | > 100 µM | > 100 µM | > 100 µM | > 100 µM | – | > 100 µM | – | – | – | – |
| CCOC(=O)C1=C(O)c2ccc(C)cc2C(=O)C1=O | > 100 µM | > 100 µM | > 100 µM | > 100 µM | > 100 µM | > 100 µM | > 100 µM | > 100 µM | > 100 µM | > 100 µM | > 100 µM | > 100 µM | > 100 µM | > 100 µM | – | – | – | – | – | – |
| COc1cc2c(c(OC)c1OC)-c1ccc(SC)c(=O)cc1[C@@H](NCc1ccc([N+](=O)[O-])cc1)CC2 | 0.0531 µM | 0.0324 µM | > 100 µM | 0.0341 µM | > 100 µM | 0.0119 µM | > 100 µM | 0.00781 µM | > 100 µM | – | > 100 µM | – | – | > 100 µM | – | – | 0.0771 µM | – | – | – |
| O=C(N=Nc1ccccc1Cl)NNc1ccccc1Cl | > 100 µM | > 100 µM | 43.2 µM | – | > 100 µM | 52.7 µM | 65.6 µM | – | – | > 100 µM | > 100 µM | > 100 µM | > 100 µM | > 100 µM | – | > 100 µM | – | – | – | – |
| Nc1c(S(=O)(=O)O)cc(S(=O)(=O)O)c2ccc(N=Nc3ccc(/C=C/c4ccc(N=Nc5ccc6c(S(=O)(=O)O)cc(S(=O)(=O)O)c(N)c6c5O)cc4S(=O)(=O)O)c(S(=O)(=O)O)c3)c(O)c12 | > 100 µM | > 100 µM | > 100 µM | > 100 µM | > 100 µM | > 100 µM | > 100 µM | > 100 µM | > 100 µM | > 100 µM | > 100 µM | – | > 100 µM | > 100 µM | – | – | – | – | – | – |
| CC1(C)O[C@@H](C[C@]2(C#N)C[C@H](CCl)OC(C)(C)O2)C[C@@H](C#N)O1 | > 100 µM | > 100 µM | > 100 µM | > 100 µM | > 100 µM | > 100 µM | > 100 µM | > 100 µM | > 100 µM | > 100 µM | > 100 µM | > 100 µM | > 100 µM | > 100 µM | – | – | – | – | – | – |
| COc1ccc(C)cc(=O)c1O | > 100 µM | > 100 µM | > 100 µM | > 100 µM | > 100 µM | 84.8 µM | > 100 µM | 90 µM | > 100 µM | > 100 µM | > 100 µM | 38.6 µM | > 100 µM | > 100 µM | – | – | – | – | – | – |
| Cc1c2ccncc2c(C)c2c1[nH]c1ccc(OCCN(C)C)cc12 | 2.77 µM | 0.706 µM | 1.42 µM | 0.499 µM | 2.96 µM | 1.16 µM | 0.135 µM | 0.906 µM | 0.505 µM | 2.01 µM | 1.31 µM | – | 0.946 µM | 2.07 µM | – | – | – | – | – | – |
| O=c1[nH]c(=O)n(C2OC(CO)C(O)C2O)cc1OCCCc1ccccc1 (stereo unspecified) | > 100 µM | > 100 µM | > 100 µM | > 100 µM | > 100 µM | – | – | > 100 µM | > 100 µM | > 100 µM | – | > 100 µM | – | > 100 µM | – | > 100 µM | – | – | – | – |
| CN(C)CC1CCC(CN(C)C)C(=O)C1=O (stereo unspecified) | 31.8 µM | 7.78 µM | 33.2 µM | 28.1 µM | 3.6 µM | 1.38 µM | 18.1 µM | 3.47 µM | 32.4 µM | 20.6 µM | 30.6 µM | 5.08 µM | 26.7 µM | 6.44 µM | 20.9 µM | – | – | – | – | – |
| [N-]=[N+]=NCC(O)Cn1cnc2c(NC(=O)c3ccccc3)ncnc21 (stereo unspecified) | > 100 µM | > 100 µM | > 100 µM | > 100 µM | > 100 µM | > 100 µM | > 100 µM | > 100 µM | > 100 µM | > 100 µM | > 100 µM | – | > 100 µM | > 100 µM | – | – | – | – | – | – |
| O=c1[nH]nc(Cc2ccc(Cl)cc2)n1/N=C/c1ccc([N+](=O)[O-])o1 | 14.1 µM | 11.5 µM | 11.2 µM | 6.59 µM | 3.31 µM | 4.18 µM | 6.48 µM | 4.8 µM | 16.2 µM | > 21.9 µM | 31.1 µM | 7.55 µM | > 34.4 µM | 9.3 µM | 6.8 µM | – | – | – | – | – |
| N/C(=N\N=C\c1ncccc1O)NO | > 100 µM | > 100 µM | > 100 µM | > 100 µM | > 100 µM | 87.9 µM | > 100 µM | > 100 µM | > 77.8 µM | > 100 µM | > 62.6 µM | – | > 100 µM | > 100 µM | – | – | – | – | – | – |
| CC1(C)CC[C@]2(C(=O)O)CC[C@]3(C)[C@H](C(=O)C=C4[C@@]5(C)C=C(C#N)C(=O)C(C)(C)[C@@H]5CC[C@]43C)[C@@H]2C1 | 0.977 µM | 1.7 µM | 7.15 µM | 1.61 µM | 1.55 µM | 5.48 µM | 1.19 µM | 1.5 µM | 1.97 µM | 2.35 µM | 2.84 µM | 2.06 µM | 3.01 µM | 2.84 µM | 4.11 µM | – | – | – | – | – |
| CC1(C)C=C(/C=N/Nc2ccccc2)C(C#N)=C(O)C1(C#N)C#N | > 100 µM | – | > 100 µM | > 100 µM | > 100 µM | > 100 µM | > 100 µM | > 100 µM | > 100 µM | > 100 µM | > 100 µM | > 100 µM | – | > 100 µM | – | > 100 µM | – | – | – | – |
| O=[Se](O)O | > 100 µM | > 100 µM | 2.43 µM | > 64.6 µM | > 100 µM | 39 µM | > 100 µM | 10.3 µM | 1.7 µM | 26.8 µM | 7.55 µM | > 28.6 µM | 2.82 µM | > 100 µM | 39 µM | – | – | – | – | – |
| C=C1C(C)C2C(Cc3ccccc3)NC(=O)C23OC(=O)/C=C\CC(=O)CCC(C)C/C=C/C3C1O (stereo unspecified) | 5.32 µM | 4.41 µM | 10.6 µM | 12.7 µM | 5.18 µM | 0.931 µM and 2.52 µM | 5.21 µM | 1.42 µM | 13.9 µM | 3.92 µM | 2.64 µM | – | 10.7 µM | 3.89 µM | – | – | – | 0.366 µM | 0.932 µM | 0.594 µM |
| CC(C)(C)C1=C(Br)C(O)(C(C)(C)C)OP1(=O)c1ccccc1 (stereo unspecified) | > 100 µM | > 100 µM | > 100 µM | > 100 µM | > 100 µM | > 100 µM | – | > 100 µM | > 100 µM | > 100 µM | > 100 µM | – | > 100 µM | > 100 µM | – | > 100 µM | – | – | – | – |
| O=C(O)c1cccc(NC(C(=O)c2ccccc2)c2ccccc2)c1 (stereo unspecified) | > 100 µM | > 100 µM | > 100 µM | > 100 µM | > 100 µM | > 100 µM | > 100 µM | > 100 µM | > 100 µM | > 100 µM | – | > 100 µM | > 100 µM | – | – | > 100 µM | – | – | – | – |
